{"source": "patent US5736518A", "about": "“Peptide compounds of (L) amino acids and ring molecules, and therapeutical applications thereof” (Polifarma S.p.A., priority 1990, dated 1998)", "key": {"[1]": {"tested_on": "spontaneously hyper-tensive rats (SHR from the company Charles River)", "assay": "pressure tests in spontaneously hypertensive rats, awake and free to move", "type": "in vivo", "description": "(§1) In the following examples will first of all be given the data necessary for synthesis of the compounds according to the present invention. There will then be given data regarding their pharmacological activity, using methods widely known to be valid. In particular, for the pressure tests, spontaneously hyper-tensive rats were used (SHR from the company Charles River), operated in such a way as to enable pressure to be read even when the animals were awake and free to move. In order to evaluate the analgesic activity, the Hot Plate and Writhing Tests were used. For the anti-inflammatory effect the test of carraginine edema was used. Finally, for immuno-modulating activity the evaluation of the stimulation of growth of human lymphocytes in culture was resorted to, after the addition of specific antigens."}, "[2]": {"tested_on": "human lymphocytes in culture", "assay": "immuno-modulating activity: stimulation of growth of human lymphocytes in culture after addition of specific antigens", "type": "cell-based", "details": "PHA stimulated lymphocytes", "description": "as §1, with “antigens. The results obtained for each synthesized compound are given at the end of each example.” for “antigens.”"}, "[3]": {"assay": "Hot Plate test (analgesic activity)", "type": "in vivo", "description": "as §1, with “antigens. The results obtained for each synthesized compound are given at the end of each example.” for “antigens.”"}}, "note": "Square brackets hold non-standard residues; d marks the D form. Peptide text beside a SMILES is read from it. * marks the point of attachment. Phg = N[C@H](C(=O)O)c1ccccc1; Cbz = O=C(OCc1ccccc1)*"}
{"compound": "CCOC(=O)[C@@H]1Cc2c([nH]c3ccccc23)CN1C(=O)[C@H](C)NC(=O)[C@@H]1CCCN1C(=O)OCc1ccccc1", "note": "[compound 1, Z-(L)-Pro-(L)-Ala-(S)-CytOEt]", "values": [{"measurement": "anti-hypertensive effect (in words)", "setting": "[1]; 4 mg/Kg i.p.", "result": "good anti-hypertensive effect"}, {"measurement": "duration of the anti-hypertensive effect", "setting": "[1]; 4 mg/Kg i.p.", "result": "a number of hours"}, {"measurement": "reduction of pressure values", "setting": "[1]; 4 mg/Kg i.p.", "result": "15-20%"}, {"measurement": "response of lymphocytes stimulated by phytohemoagglutinine (PHA) (in words)", "setting": "[2]", "result": "increases the response of lymphocytes"}, {"measurement": "pain killing effect under the Hot Plate test (in words)", "setting": "[3]; 4 mg/Kg i.p.", "result": "slight pain killing effect"}]}
{"compound": "COC(=O)[C@@H](NC(=O)[C@H](C)NC(=O)[C@@H]1CCCN1C(=O)OCc1ccccc1)c1ccccc1", "note": "[compound 5, Z-(L)-Pro-(L)-Ala-(L)-PhgOMe] (Cbz-Pro-Ala-[Phg]-OMe)", "values": [{"measurement": "anti-hypertensive effect (in words)", "setting": "[1]; 8 mg/Kg i.p.", "result": "bland anti-hypertensive effect"}, {"measurement": "analgesic effect, Hot Plate test (in words)", "setting": "[3]; dose not stated", "result": "moderate analgesic effect"}]}
